One assay relates to S. aureus RC15. In kind it is cell-based, Staphylococcus aureus. Particulars: resistant clone of S. aureus ATCC 29213; ClpP E52→STOP, premature stop. Here is the method:
(§1) Determination of antibacterial activity: ADEP1 was purified from the culture supernatant of S. hawaiiensis NRRL 15010 as described.4 ADEPs 2, 4, 7, 9 were custom synthesised by EMC Microcollections, Tübingen, or provided by AiCuris, Wuppertal, Germany. The minimal inhibitory concentration (MIC) was determined by broth microdilution in Mueller‐Hinton broth (without cation adjustment) according to the guidelines of the Clinical Laboratory Standards Institute (CLSI).69 The inoculum was set to 5×10^4 CFU mL^−1 to allow some distance to the determined spontaneous resistance frequencies. […] All other ADEPs were used from DMSO stock solutions kept at −20 °C.
(§2) Screening for ADEP‐resistant mutants and determination of resistance rates: Single colonies of wild‐type strains grown on Mueller‐Hinton agar plates overnight were suspended in sterile saline and a final inoculum of 5×10^6 cells was spread on plates supplemented with different ADEP congeners at 4× and 10× the MIC. For B. subtilis strain 3xclpP, ADEP7‐containing Mueller‐Hinton agar plates were additionally supplemented with 1 mM IPTG. Resistant colonies were counted after 24 h at 37 °C and colonies were randomly chosen for MIC determinations and sequencing. Mutations in the clpP gene of the respective isolated mutants were analysed by amplifying the clpP gene (and upstream promoter region) by PCR and sequencing of the resulting PCR amplicons (LGC genomics). Sequencing data were analysed by using SnapGene software (GSL Biotech).

In another assay the test system is S. aureus RC5. It counts as cell-based, Staphylococcus aureus. The settings on record: resistant clone of S. aureus 133; ClpP A133→V, ring-ring interaction. As to the method: as §1, §2
For a further assay, the system named is S. aureus RC17. It counts as cell-based, Staphylococcus aureus. Particulars: resistant clone of S. aureus ATCC 29213; ClpP A133→V, ring-ring interaction. Here is the method:
as §1, §2

For another assay, the system named is B. subtilis 168. Put plainly: microbe, parasite or virus in culture. It counts as cell-based, Bacillus subtilis. The settings on record: broth microdilution, Mueller-Hinton broth (without cation adjustment), CLSI, inoculum 5×10^4 CFU mL^−1; wild type. As to the method: as §1
For orientation: Dilution methods test growth across graded concentrations, often in twofold steps.

The test system of a further assay is E. faecium L4001. It counts as cell-based, Enterococcus faecium. The settings on record: broth microdilution, Mueller-Hinton broth; wildtype. As to the method: as §1
In assay [1] the test system is S. aureus 133. Nature of the assay: microbe, parasite or virus in culture. In kind it is cell-based, Staphylococcus aureus. Particulars: broth microdilution, Mueller-Hinton broth (without cation adjustment), CLSI, inoculum 5×10^4 CFU mL^−1; wild type. Here is the method:
as §1

The subject of assay [2] is S. aureus ATCC 29213. Put plainly: microbe, parasite or virus in culture. It counts as cell-based, Staphylococcus aureus. The settings on record: broth microdilution, Mueller-Hinton broth (without cation adjustment), CLSI, inoculum 5×10^4 CFU mL^−1; wild type. As to the method:
as §1

Another assay has as its system S. pneumoniae G9A. In kind it is cell-based, Streptococcus pneumoniae. The settings on record: broth microdilution, Mueller-Hinton broth; wildtype. As to the method:
as §1

The subject of the next assay is E. faecium RC3. In kind it is cell-based, Enterococcus faecium. The settings on record: resistant clone of E. faecium L4001; ClpP G127→A (equatorial interface). As to the method:
as §1, §2

For a further assay, the system named is E. faecium RC1. It counts as cell-based, Enterococcus faecium. Particulars: resistant clone of E. faecium L4001; ClpP I29→T, ADEP binding site. Here is the method:
as §1, §2

The next assay has as its system E. faecium RC2. In kind it is cell-based, Enterococcus faecium. The settings on record: resistant clone of E. faecium L4001; insertion of IS30 family transposase between promotor and start codon, no expression. As to the method: as §1, §2
Assay [3] has as its system S. aureus 133. Nature of the assay: Spontaneous resistance rate on ADEP-containing agar. It counts as cell-based, Staphylococcus aureus. The settings on record: ADEP exposure 4× MIC in Mueller-Hinton agar; 5×10^6 cells plated, colonies counted after 24 h at 37 °C. As to the method:
as §2

The test system of assay [4] is S. aureus ATCC 29213. The assay is described as above. It counts as cell-based, Staphylococcus aureus. Particulars: 5×10^6 cells plated, colonies counted after 24 h at 37 °C. As to the method:
as §2

The test system of another assay is wild-type SaClpP. Put plainly: FITC-casein degradation by ADEP-activated ClpP. Particulars: 1 μM SaClpP, 20 μM FITC-casein, 32 °C; Figure 6D. In kind it is biochemical, Staphylococcus aureus. Here is the method:
Peptide and protein degradation assays: Degradation assays with the fluorogenic peptide substrate Suc‐Leu‐Tyr‐7‐amino‐4‐methylcoumarin (Suc‐LY‐AMC) were performed in either BsClpP (50 mM Tris‐HCl, 25 mM MgCl2, 200 mM KCl, 2 mM DTT, pH 8) or SaClpP activity buffer (100 mM HEPES pH 7, 100 mM NaCl) in black, flat‐bottom‐96‐well plates (Sarstedt) with a total reaction volume of 100 μl and reaction temperatures of 32 °C and 37 °C for SaClpP and BsClpP, respectively. Purified ClpP proteins (final concentrations as indicated in the respective experiments) and ADEP2 (applied in 1 μl from a DMSO stock solution) were mixed and pre‐incubated for 15 min at reaction temperatures. […] Fluorophore release upon peptide hydrolysis was read out in a Tecan Infinite M200Pro plate reader (excitation/emission: 380/460 nm) every 30–60 s for 1 h. […] SaClpP (1 μM) and ADEP2 (concentrations as indicated) were pre‐incubated at 32 °C for 15 min before initiating the reaction by addition of FITC – casein (20 μM final concentration) and fluorescence readout (excitation/emission: 485/535 nm). In both assays, enzyme velocity was determined by linear regression of the initial segment of the fluorescence‐time plot in GraphPad Prism 5. […] Decrease of fluorescence was monitored at an emission wavelength of 535 nm in white, flat‐bottom 96‐well‐plates (Greiner). […]

The next assay has as its system E. faecalis ATCC 29212. Put plainly: microbe, parasite or virus in culture. It counts as cell-based, Enterococcus faecalis. The settings on record: broth microdilution, Mueller-Hinton broth (without cation adjustment), CLSI, inoculum 5×10^4 CFU mL^−1; wild type. Here is the method:
as §1

The next assay has as its system S. pneumoniae RC4. It counts as cell-based, Streptococcus pneumoniae. The settings on record: resistant clone of S. pneumoniae G9A; ClpP A94→G (ClpP core; β4). As to the method:
as §1, §2

Molecules are shown by their SMILES. Values after ≈ are worked out from the molar mass of the structure shown. Where only a bound is given, the exact number is not on record here.

The text below walks through data of publication PMC7496096, “Functional Characterisation of ClpP Mutations Conferring Resistance to Acyldepsipeptide Antibiotics in Firmicutes” (Chembiochem, 2020).

For the molecule `C[C@@H]1C[C@H]2C(=O)OC[C@H](NC(=O)[C@H](Cc3cc(F)cc(F)c3)NC(=O)CCC3CCCCC3)C(=O)N3CCC[C@H]3C(=O)N3CCCC[C@H]3C(=O)N[C@@H](C)C(=O)N2C1` [ADEP2], the MIC in the assay with S. aureus RC15 is over 64 µg/mL; against S. aureus RC5, over 64 µg/mL; against S. aureus RC17 it was over 64 µg/mL; against B. subtilis 168, at most 0.031 µg/mL; with E. faecium L4001, at most 0.063 µg/mL; against S. aureus 133 [1], 0.031 µg/mL (≈ 0.0388 µM). In addition, the MIC is 0.125 µg/mL (≈ 0.156 µM) in the assay on S. aureus ATCC 29213 [2]; at most 0.063 µg/mL in the assay with S. pneumoniae G9A; 4 µg/mL (≈ 5.01 µM) against E. faecium RC3; 0.125 µg/mL (≈ 0.156 µM) against E. faecium RC1; over 16 µg/mL in the assay with E. faecium RC2; at most 0.031 µg/mL in the assay with E. faecalis ATCC 29212. Further, the MIC in the assay on S. pneumoniae RC4 is 16 µg/mL (≈ 20 µM). The Resistance rate in the assay on S. aureus 133 [3] is reported as 3×10^−6; with S. aureus ATCC 29213 [4] (ADEP exposure 4× MIC in Mueller-Hinton agar), 7×10^−7; in the assay on S. aureus ATCC 29213 [4] (ADEP exposure 10× MIC in Mueller-Hinton agar), 7×10^−7. For the same molecule, the “concentration sufficient for an almost maximal casein degradation rate” value in the assay on wild-type SaClpP worked out at 3 µM.
